# Several values for one entry are separate records, joined by “and”; a condition that tells them apart may be missing. Equal values may be shown once. Activity calls are given as the source filed them. The rule behind the calls is not given here.
# What was measured:
# [1] = Ex vivo receptor occupancy at 5-HT2A receptor in orally dosed rat frontal cortex measured after 1 hr; type: functional; conditions: po
# [2] = In vivo antagonist activity at 5-HT2A receptor in po dosed mouse assessed as inhibition of DOI-induced head twitch measured after 60 mins; type: functional; conditions: 1 h
# [3] = tested on: Rattus norvegicus; assay: In vivo antagonist activity at 5-HT7 receptor in rat assessed as maximal inhibition of 5-CT induced hypothermia at 0.3 mg/kg, po compound administered 20 mins prior to 5-CT injection; type: functional, organism-based
# [4] = In vivo antagonist activity at 5-HT7 receptor in po dosed rat assessed as inhibition of 5-CT induced hypothermia compound administered 20 mins prior to 5-CT injection and measured after 1 hr; type: functional; conditions: 1.333 h, time 80 min
# [5] = Ratio of drug level in rat brain to plasma at 10 mg/kg, po; type: ADME, organism-based; conditions: brain and plasma, read-out: BPR
# [6] = Cmax in non-human primates at 5 mg/kg, po; type: ADME, organism-based; parameters: route oral, dose 5 mg/kg; conditions: in vivo
# [7] = Half life in non-human primates at 5 mg/kg, po; type: ADME, organism-based; conditions: in vivo
# [8] = Tmax in non-human primates at 5 mg/kg, po; type: ADME, organism-based; conditions: in vivo
# [9] = Tmax in dog at 10 mg/kg, po; type: ADME, organism-based, Canis lupus familiaris; conditions: in vivo
# [10] = Half life in rat brain at 10 mg/kg, po; type: ADME, organism-based
# [11] = Oral bioavailability in rat; type: ADME, organism-based; conditions: in vivo
# [12] = Oral bioavailability in mouse; type: ADME, organism-based; conditions: in vivo
# [13] = Oral bioavailability in dog; type: ADME, organism-based, Canis lupus familiaris; conditions: in vivo
# [14] = Oral bioavailability in monkey; type: ADME, organism-based, Macaca mulatta; conditions: rhesus monkey, in vivo
# [15] = Cmax in dog at 10 mg/kg, po; type: ADME, organism-based, Canis lupus familiaris; parameters: route oral, dose 10 mg/kg; conditions: in vivo
# [16] = Half life in dog at 10 mg/kg, po; type: ADME, organism-based, Canis lupus familiaris; conditions: in vivo
# [17] = Clearance in rat brain at 10 mg/kg, po; type: ADME, organism-based; conditions: in vivo
# [18] = Cmax in rat brain at 10 mg/kg, po; type: ADME, organism-based; parameters: route oral, dose 10 mg/kg
# [19] = AUC in rat brain at 10 mg/kg, po; type: ADME, organism-based; parameters: dose 10 mg/kg
# [20] = Tmax in rat brain at 10 mg/kg, po; type: ADME, organism-based
# [21] = Half life in rat plasma at 10 mg/kg, po; type: ADME, organism-based
# [22] = Clearance in rat plasma at 10 mg/kg, po; type: ADME, organism-based
# [23] = Tmax in rat plasma at 10 mg/kg, po; type: ADME, organism-based
# [24] = Cmax in rat plasma at 10 mg/kg, po; type: ADME, organism-based; parameters: route oral, dose 10 mg/kg
# [25] = AUC in rat plasma at 10 mg/kg, po; type: ADME, organism-based; parameters: dose 10 mg/kg
# [26] = Half life in rat at 3 mg/kg, sc; type: ADME, organism-based; conditions: in vivo
# [27] = Clearance in rat at 3 mg/kg, sc; type: ADME, organism-based; conditions: in vivo
# [28] = AUC in rat at 3 mg/kg, sc; type: ADME, organism-based; parameters: dose 3 mg/kg; conditions: in vivo
# [29] = Cmax in rat at 3 mg/kg, sc; type: ADME, organism-based; parameters: route subcutaneous, dose 3 mg/kg; conditions: in vivo
# [30] = Tmax in rat at 3 mg/kg, sc; type: ADME, organism-based; conditions: in vivo
# [31] = Half life in rat at 3 mg/kg, po; type: ADME, organism-based; conditions: in vivo
# [32] = AUC in rat at 3 mg/kg, po; type: ADME, organism-based; parameters: dose 3 mg/kg; conditions: in vivo
# [33] = Clearance in rat at 3 mg/kg, po; type: ADME, organism-based; conditions: in vivo
# [34] = Cmax in rat at 3 mg/kg, po; type: ADME, organism-based; parameters: route oral, dose 3 mg/kg; conditions: in vivo
# [35] = Half life in rat at 1 mg/kg, iv; type: ADME, organism-based; conditions: in vivo
# [36] = Tmax in rat at 3 mg/kg, po; type: ADME, organism-based; conditions: in vivo
# [37] = Clearance in rat at 1 mg/kg, iv; type: ADME, organism-based; conditions: in vivo
# [38] = AUC in rat at 1 mg/kg, iv; type: ADME, organism-based; parameters: dose 1 mg/kg; conditions: in vivo
# [39] = tested on: Cytochrome P450; assay: Inhibition of CYP450 (unknown origin) up to 10 uM; type: ADME, protein assay; conditions: human
# [40] = Metabolic stability in rat liver microsomes assessed as half life; type: ADME, Microsome
# [41] = Metabolic stability in human liver microsomes assessed as half life; type: ADME, Microsome
# [42] = Protein binding in human plasma assessed as unbound fraction; type: ADME, cell-free
# [43] = Protein binding in rat plasma assessed as unbound fraction; type: ADME, cell-free
# [44] = target: 5-hydroxytryptamine receptor 7 (Homo sapiens, UniProt P34969); assay: Inverse agonist activity at 5-HT7 receptor (unknown origin) by cAMP functional assay
# [45] = target: T1, 5-hydroxytryptamine receptor 2A (Homo sapiens, UniProt P28223); assay: Antagonist activity at 5-HT2A receptor (unknown origin) by calcium mobilization assay; type: functional; conditions: filed as antagonist
# [46] = target: T2, Adrenergic receptor alpha-1 (Rattus norvegicus, UniProt P15823+P23944+P43140); assay: Displacement of […] from alpha1 adrenergic receptor in rat cortex membrane incubated for 60 mins by competitive radioligand binding assay; type: cell membranes
# T2 sequence (P15823 whole entry): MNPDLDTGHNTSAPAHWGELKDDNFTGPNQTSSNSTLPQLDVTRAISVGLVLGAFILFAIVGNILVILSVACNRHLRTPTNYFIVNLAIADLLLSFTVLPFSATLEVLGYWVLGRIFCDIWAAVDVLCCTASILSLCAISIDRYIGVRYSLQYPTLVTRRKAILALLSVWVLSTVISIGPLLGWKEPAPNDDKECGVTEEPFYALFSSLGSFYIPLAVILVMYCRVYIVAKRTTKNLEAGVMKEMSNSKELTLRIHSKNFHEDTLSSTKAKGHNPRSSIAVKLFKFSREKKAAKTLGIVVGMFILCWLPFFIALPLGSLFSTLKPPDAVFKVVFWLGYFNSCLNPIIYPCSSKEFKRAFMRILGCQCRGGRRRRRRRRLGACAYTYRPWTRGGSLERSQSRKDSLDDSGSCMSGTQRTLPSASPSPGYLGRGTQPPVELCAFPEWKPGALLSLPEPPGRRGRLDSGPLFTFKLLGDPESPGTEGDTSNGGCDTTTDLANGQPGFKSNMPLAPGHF
# T2 sequence (P23944 whole entry): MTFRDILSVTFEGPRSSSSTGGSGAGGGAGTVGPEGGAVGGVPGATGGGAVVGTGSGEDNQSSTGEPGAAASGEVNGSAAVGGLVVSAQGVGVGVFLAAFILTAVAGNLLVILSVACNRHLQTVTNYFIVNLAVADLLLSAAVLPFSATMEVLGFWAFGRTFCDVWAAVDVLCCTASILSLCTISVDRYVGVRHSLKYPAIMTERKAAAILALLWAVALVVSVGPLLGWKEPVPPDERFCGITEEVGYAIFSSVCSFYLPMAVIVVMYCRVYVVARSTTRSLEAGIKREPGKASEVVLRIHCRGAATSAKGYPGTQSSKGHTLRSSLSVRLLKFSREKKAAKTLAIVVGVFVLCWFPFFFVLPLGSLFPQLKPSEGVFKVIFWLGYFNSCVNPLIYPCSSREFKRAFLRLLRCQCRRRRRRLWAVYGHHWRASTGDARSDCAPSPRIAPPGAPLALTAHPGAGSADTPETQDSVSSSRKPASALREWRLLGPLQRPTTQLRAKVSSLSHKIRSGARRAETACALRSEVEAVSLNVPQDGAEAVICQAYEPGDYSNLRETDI
# T2 sequence (P43140 whole entry): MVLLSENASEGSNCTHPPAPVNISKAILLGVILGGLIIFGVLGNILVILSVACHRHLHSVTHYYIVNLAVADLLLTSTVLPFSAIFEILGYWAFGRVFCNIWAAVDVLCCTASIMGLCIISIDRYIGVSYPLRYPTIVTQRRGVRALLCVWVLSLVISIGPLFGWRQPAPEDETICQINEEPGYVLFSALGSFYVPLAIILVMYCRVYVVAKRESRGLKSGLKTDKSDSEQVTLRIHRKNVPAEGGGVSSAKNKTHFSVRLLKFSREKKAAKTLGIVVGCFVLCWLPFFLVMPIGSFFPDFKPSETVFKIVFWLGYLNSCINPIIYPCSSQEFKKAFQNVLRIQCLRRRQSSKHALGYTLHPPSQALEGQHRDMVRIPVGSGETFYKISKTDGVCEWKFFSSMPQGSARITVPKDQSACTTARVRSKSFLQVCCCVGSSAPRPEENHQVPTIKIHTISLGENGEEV
# [47] = target: T3, 5-hydroxytryptamine receptor 2C (Homo sapiens, UniProt P28335); assay: Displacement of [3H]-ketanserin from human 5-HT2C receptor by competitive radioligand binding assay
# T3 sequence (P28335 whole entry): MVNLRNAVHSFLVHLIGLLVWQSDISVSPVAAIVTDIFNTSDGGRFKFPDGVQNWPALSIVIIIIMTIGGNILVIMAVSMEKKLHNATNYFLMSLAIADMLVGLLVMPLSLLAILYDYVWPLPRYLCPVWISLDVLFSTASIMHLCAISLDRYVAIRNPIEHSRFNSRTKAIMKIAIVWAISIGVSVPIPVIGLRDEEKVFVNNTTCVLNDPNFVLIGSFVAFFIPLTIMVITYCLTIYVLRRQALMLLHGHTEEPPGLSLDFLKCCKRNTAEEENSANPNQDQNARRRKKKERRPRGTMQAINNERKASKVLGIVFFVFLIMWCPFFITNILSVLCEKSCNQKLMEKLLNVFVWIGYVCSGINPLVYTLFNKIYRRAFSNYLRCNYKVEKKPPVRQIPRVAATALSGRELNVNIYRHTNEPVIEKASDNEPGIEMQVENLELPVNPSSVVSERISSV
# [48] = target: 5-hydroxytryptamine receptor 2B (Homo sapiens, UniProt P41595); assay: Displacement of [3H]-ketanserin from human 5-HT2B receptor by competitive radioligand binding assay
# [49] = target: T1, 5-hydroxytryptamine receptor 2A; assay: Displacement of [3H]-ketanserin from human 5-HT2A receptor by competitive radioligand binding assay
# [50] = target: 5-hydroxytryptamine receptor 7 (Rattus norvegicus, UniProt P32305); assay: Displacement of [3H]-CT from rat 5-HT7 receptor expressed in HEK293 cells by competitive radioligand binding assay; type: cell-based
# [51] = Efflux ratio of apparent permeability in human Caco2 cells; type: ADME, cell-based; conditions: Caco-2
# [52] = Toxicity in rat assessed as effect on body temperature at 0.03 to 1 mg/kg, po; type: organism-based; conditions: in vivo, dose 0.03-1 mg/kg
# [53] = Plasma concentration that yields to require for maximal inhibition of 5-HT7 receptor mediated hypothermia in 5-CT-stimulated rat at 0.3 mg/kg, po compound administered 20 mins prior to 5-CT injection; type: organism-based
# [54] = Ratio of plasma concentration that yields to require for inhibition of alpha1 adrenergic receptor-mediated mydriasis in phenylephrine-stimulated rat to MED for inhibition of 5-HT7 receptor mediated hypothermia in po dosed 5-CT-stimulated rat; type: organism-based
# T1 sequence (P28223 whole entry): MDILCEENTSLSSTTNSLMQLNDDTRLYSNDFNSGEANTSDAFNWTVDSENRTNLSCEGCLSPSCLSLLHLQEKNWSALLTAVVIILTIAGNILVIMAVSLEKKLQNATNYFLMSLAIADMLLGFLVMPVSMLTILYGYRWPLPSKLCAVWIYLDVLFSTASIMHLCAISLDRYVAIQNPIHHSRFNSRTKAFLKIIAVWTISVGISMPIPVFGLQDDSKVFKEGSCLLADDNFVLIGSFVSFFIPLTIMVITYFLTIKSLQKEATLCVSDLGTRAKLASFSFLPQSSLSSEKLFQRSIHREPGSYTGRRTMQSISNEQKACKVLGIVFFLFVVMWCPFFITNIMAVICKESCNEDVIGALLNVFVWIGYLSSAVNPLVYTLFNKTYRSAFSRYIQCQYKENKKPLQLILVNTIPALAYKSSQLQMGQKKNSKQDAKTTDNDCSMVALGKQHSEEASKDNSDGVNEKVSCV
# Sequence of 5-hydroxytryptamine receptor 7 (Homo sapiens, UniProt P34969) (P34969 whole entry): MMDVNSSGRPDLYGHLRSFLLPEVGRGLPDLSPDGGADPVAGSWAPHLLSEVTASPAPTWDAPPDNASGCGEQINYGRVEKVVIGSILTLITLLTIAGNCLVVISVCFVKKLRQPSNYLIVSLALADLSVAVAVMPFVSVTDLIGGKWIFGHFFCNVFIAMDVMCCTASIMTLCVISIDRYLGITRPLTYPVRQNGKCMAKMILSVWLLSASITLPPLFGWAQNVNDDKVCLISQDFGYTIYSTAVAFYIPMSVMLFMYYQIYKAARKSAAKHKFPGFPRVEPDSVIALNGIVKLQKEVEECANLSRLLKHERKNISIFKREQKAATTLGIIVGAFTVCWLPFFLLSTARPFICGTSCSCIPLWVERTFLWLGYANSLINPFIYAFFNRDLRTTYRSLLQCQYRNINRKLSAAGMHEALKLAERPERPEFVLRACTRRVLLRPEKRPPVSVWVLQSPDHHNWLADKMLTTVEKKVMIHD
# Sequence of 5-hydroxytryptamine receptor 2B (P41595 whole entry): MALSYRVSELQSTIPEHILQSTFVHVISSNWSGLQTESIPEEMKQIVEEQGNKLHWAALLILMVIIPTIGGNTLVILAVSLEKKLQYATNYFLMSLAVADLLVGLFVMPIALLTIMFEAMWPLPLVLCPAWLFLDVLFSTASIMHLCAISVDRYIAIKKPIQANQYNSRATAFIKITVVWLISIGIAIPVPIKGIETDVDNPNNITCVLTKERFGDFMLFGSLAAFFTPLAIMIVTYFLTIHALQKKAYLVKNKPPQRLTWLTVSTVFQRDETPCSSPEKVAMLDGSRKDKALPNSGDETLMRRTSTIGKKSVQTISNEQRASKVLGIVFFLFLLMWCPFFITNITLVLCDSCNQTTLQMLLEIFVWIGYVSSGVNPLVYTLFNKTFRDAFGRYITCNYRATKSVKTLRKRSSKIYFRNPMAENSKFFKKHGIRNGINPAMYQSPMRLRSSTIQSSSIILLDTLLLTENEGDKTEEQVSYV
# Sequence of 5-hydroxytryptamine receptor 7 (Rattus norvegicus, UniProt P32305) (P32305 whole entry): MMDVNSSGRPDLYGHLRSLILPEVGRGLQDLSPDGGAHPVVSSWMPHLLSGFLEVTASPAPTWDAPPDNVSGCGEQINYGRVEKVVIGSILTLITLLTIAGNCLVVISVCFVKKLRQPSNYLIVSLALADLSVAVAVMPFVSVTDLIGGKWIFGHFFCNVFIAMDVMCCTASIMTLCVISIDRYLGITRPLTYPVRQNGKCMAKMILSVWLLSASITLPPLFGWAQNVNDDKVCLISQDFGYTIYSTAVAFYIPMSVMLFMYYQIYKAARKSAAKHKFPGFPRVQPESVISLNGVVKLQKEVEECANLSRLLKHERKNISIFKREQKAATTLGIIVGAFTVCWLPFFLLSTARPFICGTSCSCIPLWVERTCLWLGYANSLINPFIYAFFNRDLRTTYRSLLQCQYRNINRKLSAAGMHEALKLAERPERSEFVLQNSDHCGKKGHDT
compound,measurement,setting,value
CC(C)n1nc2c(c1-c1ccc(F)cc1)CCNCC2,ED50,[1],0.8 mg/kg
same,ED50,[2],0.3 mg/kg
same,inhibition,[3],Active
same,ED50,[4],0.05 mg/kg
same,Kp,[5],> 1
same,Cmax,[6],300 ng/mL
same,half-life,[7],11.4 h
same,Tmax,[8],3 h
same,Tmax,[9],0.5 h
same,half-life,[10],6.3 h
same,bioavailability,[11],100%
same,bioavailability,[12],98%
same,bioavailability,[13],98%
same,bioavailability,[14],72%
same,Cmax,[15],2000 ng/mL
same,half-life,[16],10.6 h
same,CL,[17],0.1 L/h
same,Cmax,[18],1680 ng/mL and 6.1 µM
same,AUC,[19],89 µM·h
same,Tmax,[20],1 h
same,half-life,[21],6 h
same,CL/F,[22],3.33 mL/min
same,Tmax,[23],1 h
same,Cmax,[24],1080 ng/mL and 3.9 µM
same,AUC,[25],57 µM·h
same,half-life,[26],3.9 h
same,CL/F,[27],6.67 mL/min
same,AUC,[28],7.7 µM·h
same,Cmax,[29],260 ng/mL and 940 nM
same,Tmax,[30],0.75 h
same,half-life,[31],4.3 h
same,AUC,[32],9.2 µM·h
same,CL/F,[33],6.67 mL/min
same,Cmax,[34],190 ng/mL and 700 nM
same,half-life,[35],3.4 h
same,Tmax,[36],1.7 h
same,clearance,[37],6.67 mL/min
same,AUC,[38],2.8 µM·h
same,inhibition (INH),[39],Not Active
same,half-life,[40],> 1 h
same,half-life,[41],> 1 h
same,fraction unbound,[42],0.3
same,fraction unbound,[43],0.2
same,IC50,[44],100 nM
same,pKb,[45],8.1
same,Ki,[46],170 nM
same,Ki,[47],49 nM
same,Ki,[48],19 nM
same,Ki,[49],8 nM
same,Ki,[50],8 nM
same,efflux ratio,[51],1.3
same,Activity,[52],Non-Toxic
same,concentration at 20 min,[53],27 ng/mL
same,selectivity ratio,[54],30

# Reference: ChEMBL document CHEMBL4673280, “Discovery and SAR studies of 2-alkyl-3-phenyl-2,4,5,6,7,8-hexahydropyrazolo[3,4-d]azepines as 5-HT inhibitors leading to the identification of a clinical candidate” (Bioorg Med Chem Lett, 2021)
